# Data as given in US20150105252A1, “SUBSTITUTED PYRAZOLES AS HERBICIDES” (E I DU PONT DE NEMOURS AND COMPANY, priority 2013, published 2015).
# How the values were obtained:
# [1] = tested on: wheat; experiment: Test A preemergence; format: in vivo, Triticum aestivum; conditions: preemergence; for Wheat plant response rating (0 to 100 scale): 125 g ai/ha, visual injury approx. 10 days after treatment; for Wheat plant response rating: 500 g ai/ha, visual injury after approx. 10 days, 0 to 100 scale (0 no effect, 100 complete control)
# Method in brief: (§1)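 Greenhouse test in loam soil/sand blend; compounds formulated in non-phytotoxic solvent with surfactant, applied as preemergence directed soil spray or postemergence to plants 2–10 cm tall at one- to two-leaf stage. Injury rated visually versus untreated controls after approximately 10 days on a 0 (no effect) to 100 (complete control) scale.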
# [2] = tested on: rice; experiment: Test B flood; format: in vivo, Oryza sativa; conditions: 250 g ai/ha, visual rating on 0 to 100 scale (0 no effect, 100 complete control), 13 to 15 days
# Method in brief: (§2)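 Visual ratings on a 0–100 scale, where 0 means no effect and 100 means complete control, were assigned by comparison with controls 13 to 15 days after treatment. Compounds went into paddy water over 2-leaf plants flooded to 3 cm.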
# [3] = tested on: pigweed; experiment: Test A postemergence; format: in vivo, Amaranthus retroflexus
# Method in brief: as §1
# [4] = tested on: barnyardgrass; experiment: Test A preemergence; format: in vivo, Echinochloa crus-galli; conditions: preemergence
# Method in brief: as §1
# [5] = tested on: crabgrass, large; experiment: Test A preemergence; format: in vivo, Digitaria sanguinalis; conditions: preemergence; for Crabgrass, Large plant response rating (0 to 100 scale): 125 g ai/ha, visual injury approx. 10 days after treatment; for Crabgrass, Large plant response rating: 500 g ai/ha, visual injury after approx. 10 days, 0 to 100 scale (0 no effect, 100 complete control)
# Method in brief: as §1
# [6] = tested on: corn; experiment: Test A postemergence; format: in vivo, Zea mays
# Method in brief: as §1
# [7] = tested on: sedge, umbrella; experiment: Test B flood; format: in vivo, Cyperus difformis; conditions: 250 g ai/ha, visual rating on 0 to 100 scale (0 no effect, 100 complete control), 13 to 15 days
# Method in brief: as §2
# [8] = tested on: velvetleaf; experiment: Test A postemergence; format: in vivo, Abutilon theophrasti
# Method in brief: as §1
# [9] = tested on: barnyardgrass; experiment: Test B flood; format: in vivo, Echinochloa crus-galli; conditions: 250 g ai/ha, visual rating on 0 to 100 scale (0 no effect, 100 complete control), 13 to 15 days
# Method in brief: as §2
# [10] = tested on: morningglory; experiment: Test A postemergence; format: in vivo, Ipomoea spp.
# Method in brief: as §1
# [11] = tested on: ducksalad; experiment: Test B flood; format: in vivo, Heteranthera limosa; conditions: 250 g ai/ha, visual rating on 0 to 100 scale (0 no effect, 100 complete control), 13 to 15 days
# Method in brief: as §2
# [12] = tested on: foxtail, giant; experiment: Test A postemergence; format: in vivo, Setaria faberii
# Method in brief: as §1
# [13] = tested on: barnyardgrass; experiment: Test A postemergence; format: in vivo, Echinochloa crus-galli
# Method in brief: as §1
# [14] = tested on: morningglory; experiment: Test A preemergence; format: in vivo, Ipomoea spp.; conditions: preemergence; for Morningglory plant response rating (0 to 100 scale): 125 g ai/ha, visual injury approx. 10 days after treatment; for Morningglory plant response rating: 500 g ai/ha, visual injury after approx. 10 days, 0 to 100 scale (0 no effect, 100 complete control)
# Method in brief: as §1
# [15] = tested on: wheat; experiment: Test A postemergence; format: in vivo, Triticum aestivum
# Method in brief: as §1
# [16] = tested on: corn; experiment: Test A preemergence; format: in vivo, Zea mays; conditions: preemergence; for Corn plant response rating (0 to 100 scale): 125 g ai/ha, visual injury approx. 10 days after treatment; for Corn plant response rating: 500 g ai/ha, visual injury after approx. 10 days, 0 to 100 scale (0 no effect, 100 complete control)
# Method in brief: as §1
# [17] = tested on: pigweed; experiment: Test A preemergence; format: in vivo, Amaranthus retroflexus; conditions: preemergence; for Pigweed plant response rating (0 to 100 scale): 125 g ai/ha, visual injury approx. 10 days after treatment; for Pigweed plant response rating: 500 g ai/ha, visual injury after approx. 10 days, 0 to 100 scale (0 no effect, 100 complete control)
# Method in brief: as §1
# [18] = tested on: velvetleaf; experiment: Test A preemergence; format: in vivo, Abutilon theophrasti; conditions: preemergence; for Velvetleaf plant response rating (0 to 100 scale): 125 g ai/ha, visual injury approx. 10 days after treatment; for Velvetleaf plant response rating: 500 g ai/ha, visual injury after approx. 10 days, 0 to 100 scale (0 no effect, 100 complete control)
# Method in brief: as §1
# [19] = tested on: foxtail, giant; experiment: Test A preemergence; format: in vivo, Setaria faberii; conditions: preemergence; for Foxtail, Giant plant response rating (0 to 100 scale): 125 g ai/ha, visual injury approx. 10 days after treatment; for Foxtail, Giant plant response rating: 500 g ai/ha, visual injury after approx. 10 days, 0 to 100 scale (0 no effect, 100 complete control)
# Method in brief: as §1
# [20] = tested on: crabgrass, large; experiment: Test A postemergence; format: in vivo, Digitaria sanguinalis
# Method in brief: as §1
# [21] = Postemergence, 500 g ai/ha, 0 to 100 scale (0 no effect, 100 complete control)
# [22] = postemergence, 125 g ai/ha, about 10 days, visual rating on 0 to 100 scale (0 no effect, 100 complete control)
# [23] = 500 g ai/ha, visual injury after approx. 10 days, 0 to 100 scale (0 no effect, 100 complete control)
SMILES,Wheat plant response rating (0 to 100 scale) [1],Wheat plant response rating [1],"Plant response rating, Rice [2]","Pigweed plant response rating [3, 21]","Pigweed plant response rating [3, 22]","Barnyardgrass plant response rating [4, 23]","Crabgrass, Large plant response rating (0 to 100 scale) [5]","Crabgrass, Large plant response rating [5]","Corn plant response rating [6, 21]","Corn plant response rating [6, 22]","Plant response rating, Sedge, Umbrella [7]","Velvetleaf plant response rating [8, 21]","Velvetleaf plant response rating [8, 22]","Plant response rating, Barnyardgrass [9]","Morningglory plant response rating [10, 21]","Morningglory plant response rating [10, 22]","Plant response rating, Ducksalad [11]","Foxtail, Giant plant response rating [12, 21]","Foxtail, Giant plant response rating [12, 22]","Barnyardgrass plant response rating [13, 21]",further results
CCc1cc(C(=O)NC2CC2)nn1Cc1nnc(C(F)(F)F)o1 [Compound 172],0,0,0,80,30,50,50,90,10,0,0,20,10,0,70,30,0,10,0,10,"Barnyardgrass plant response rating ([4]; 125 g ai/ha, visual injury, 0 to 100 scale, approx. 10 days): 0; Barnyardgrass plant response rating [13, 22]: 0; Morningglory plant response rating (0 to 100 scale) [14]: 30; Morningglory plant response rating [14]: 40; Wheat plant response rating [15, 21]: 0; Wheat plant response rating [15, 22]: 0; Corn plant response rating (0 to 100 scale) [16]: 0; Corn plant response rating [16]: 10; Pigweed plant response rating (0 to 100 scale) [17]: 80; Pigweed plant response rating [17]: 100; Velvetleaf plant response rating (0 to 100 scale) [18]: 10; Velvetleaf plant response rating [18]: 20; Foxtail, Giant plant response rating (0 to 100 scale) [19]: 20; Foxtail, Giant plant response rating [19]: 50; Crabgrass, Large plant response rating [20, 21]: 20; Crabgrass, Large plant response rating [20, 22]: 10"
O=C(NC1CC1)c1cc(I)n(Cc2cccc(C(F)(F)F)c2)n1 [Compound 180],0,0,0,100,70,40,30,100,0,0,0,30,0,0,80,0,0,30,10,30,"Barnyardgrass plant response rating (0 to 100 scale, 0 is no effect, 100 is complete control) ([4]; 125 g ai/ha, visual injury approx. 10 days after treatment): 0; Barnyardgrass plant response rating [13, 22]: 0; Morningglory plant response rating (0 to 100 scale) [14]: 0; Morningglory plant response rating [14]: 0; Wheat plant response rating [15, 21]: 0; Wheat plant response rating [15, 22]: 0; Corn plant response rating (0 to 100 scale) [16]: 0; Corn plant response rating [16]: 0; Pigweed plant response rating (0 to 100 scale) [17]: 10; Pigweed plant response rating [17]: 100; Velvetleaf plant response rating (0 to 100 scale) [18]: 0; Velvetleaf plant response rating [18]: 0; Foxtail, Giant plant response rating (0 to 100 scale) [19]: 10; Foxtail, Giant plant response rating [19]: 90; Crabgrass, Large plant response rating [20, 21]: 30; Crabgrass, Large plant response rating [20, 22]: 10"
